# The supplement of paper PMC10307832
# What was measured:
# Experiment in all cases: relative viability (nuclei count vs DMSO), 5 days (fraction); higher = more cells survive
# NCI-H23 = test system: NCI-H23
# Outline: (§1)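 Medians of duplicate plates are given as relative viability. That measure is the nuclei count in treated wells divided by the count in vehicle wells. Counts were taken on 4× images of lung cancer cell lines in 1536-well plates, 5 days after pin-tool dosing the day after seeding with one drug alone or a fixed anchor-drug dose plus five library-drug doses (not always all listed) in √10 steps.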
# NCI-H650 = test system: NCI-H650
# Outline: as §1
# HCC-15 = test system: HCC-15
# Outline: as §1
# HARA = test system: HARA
# Outline: as §1
# SK-MES-1 = test system: SK-MES-1
# Outline: as §1
# NCI-H1975 = test system: NCI-H1975
# Outline: as §1
# COR-L23 = test system: COR-L23
# Outline: as §1
# BEN = test system: BEN
# Outline: as §1
# HCC-44 = test system: HCC-44
# Outline: as §1
# 201T = test system: 201T
# Outline: as §1
# NCI-H1792 = test system: NCI-H1792
# Outline: as §1
# A-427 = test system: A-427
# Outline: as §1
# NCI-H838 = test system: NCI-H838
# Outline: as §1
# NCI-H1650 = test system: NCI-H1650
# Outline: as §1
# NCI-H2342 = test system: NCI-H2342
# Outline: as §1
# NCI-H441 = test system: NCI-H441
# Outline: as §1
# SW 900 = test system: SW 900
# Outline: as §1
# NCI-H1437 = test system: NCI-H1437
# Outline: as §1
# EKVX = test system: EKVX
# Outline: as §1
# NCI-H358 = test system: NCI-H358
# Outline: as §1
# HCC-827 = test system: HCC-827
# Outline: as §1
smiles,measurement,setting,value
Cc1sc2c(c1C)C(c1ccc(Cl)cc1)=N[C@@H](CC(=O)OC(C)(C)C)c1nnc(C)n1-2 [JQ1] + CC(=O)c1c(C)c2cnc(Nc3ccc(N4CCNCC4)cn3)nc2n(C2CCCC2)c1=O [Palbociclib] (partner 0.5 µM),relative viability,NCI-H23; first compound 0.04 µM,0.597
same,relative viability,NCI-H23; first compound 0.1265 µM,0.48
same,relative viability,NCI-H23; first compound 0.4 µM,0.275
same,relative viability,NCI-H23; first compound 1.265 µM,0.26
same,relative viability,NCI-H23; first compound 4 µM,0.215
same,relative viability,NCI-H650; first compound 0.04 µM,0.328
same,relative viability,NCI-H650; first compound 0.1265 µM,0.259
same,relative viability,NCI-H650; first compound 0.4 µM,0.228
same,relative viability,NCI-H650; first compound 1.265 µM,0.176
same,relative viability,NCI-H650; first compound 4 µM,0.164
same,relative viability,HCC-15; first compound 0.04 µM,0.648
same,relative viability,HCC-15; first compound 0.1265 µM,0.585
same,relative viability,HCC-15; first compound 0.4 µM,0.64
same,relative viability,HCC-15; first compound 1.265 µM,0.561
same,relative viability,HCC-15; first compound 4 µM,0.395
same,relative viability,HARA; first compound 0.04 µM,0.224
same,relative viability,HARA; first compound 0.1265 µM,0.193
same,relative viability,HARA; first compound 0.4 µM,0.228
same,relative viability,HARA; first compound 1.265 µM,0.229
same,relative viability,HARA; first compound 4 µM,0.189
same,relative viability,SK-MES-1; first compound 0.04 µM,0.295
same,relative viability,SK-MES-1; first compound 0.1265 µM,0.264
same,relative viability,SK-MES-1; first compound 0.4 µM,0.234
same,relative viability,SK-MES-1; first compound 1.265 µM,0.213
same,relative viability,SK-MES-1; first compound 4 µM,0.23
same,relative viability,NCI-H1975; first compound 0.04 µM,0.607
same,relative viability,NCI-H1975; first compound 0.1265 µM,0.38
same,relative viability,NCI-H1975; first compound 0.4 µM,0.457
same,relative viability,NCI-H1975; first compound 1.265 µM,0.287
same,relative viability,NCI-H1975; first compound 4 µM,0.248
same,relative viability,COR-L23; first compound 0.04 µM,0.336
same,relative viability,COR-L23; first compound 0.1265 µM,0.193
same,relative viability,COR-L23; first compound 0.4 µM,0.25
same,relative viability,COR-L23; first compound 1.265 µM,0.165
same,relative viability,COR-L23; first compound 4 µM,0.162
same,relative viability,BEN; first compound 0.04 µM,0.435
same,relative viability,BEN; first compound 0.1265 µM,0.443
same,relative viability,BEN; first compound 0.4 µM,0.476
same,relative viability,BEN; first compound 1.265 µM,0.376
same,relative viability,BEN; first compound 4 µM,0.325
same,relative viability,HCC-44; first compound 0.04 µM,0.96
same,relative viability,HCC-44; first compound 0.1265 µM,0.942
same,relative viability,HCC-44; first compound 0.4 µM,1.11
same,relative viability,HCC-44; first compound 1.265 µM,0.978
same,relative viability,HCC-44; first compound 4 µM,0.728
same,relative viability,201T; first compound 0.04 µM,0.334
same,relative viability,201T; first compound 0.4 µM,0.298
same,relative viability,201T; first compound 1.265 µM,0.313
same,relative viability,201T; first compound 4 µM,0.268
same,relative viability,NCI-H1792; first compound 0.04 µM,0.6
same,relative viability,NCI-H1792; first compound 0.4 µM,0.538
same,relative viability,NCI-H1792; first compound 1.265 µM,0.446
same,relative viability,NCI-H1792; first compound 4 µM,0.385
same,relative viability,A-427; first compound 0.04 µM,0.524
same,relative viability,A-427; first compound 0.1265 µM,0.493
same,relative viability,A-427; first compound 0.4 µM,0.457
same,relative viability,A-427; first compound 1.265 µM,0.445
same,relative viability,A-427; first compound 4 µM,0.375
same,relative viability,NCI-H838; first compound 0.04 µM,0.205
same,relative viability,NCI-H838; first compound 0.1265 µM,0.194
same,relative viability,NCI-H838; first compound 0.4 µM,0.167
same,relative viability,NCI-H838; first compound 1.265 µM,0.164
same,relative viability,NCI-H838; first compound 4 µM,0.162
same,relative viability,NCI-H1650; first compound 0.04 µM,0.322
same,relative viability,NCI-H1650; first compound 0.1265 µM,0.264
same,relative viability,NCI-H1650; first compound 0.4 µM,0.256
same,relative viability,NCI-H1650; first compound 1.265 µM,0.111
same,relative viability,NCI-H1650; first compound 4 µM,0.134
same,relative viability,NCI-H2342; first compound 0.04 µM,0.526
same,relative viability,NCI-H2342; first compound 0.1265 µM,0.501
same,relative viability,NCI-H2342; first compound 0.4 µM,0.535
same,relative viability,NCI-H2342; first compound 1.265 µM,0.574
same,relative viability,NCI-H2342; first compound 4 µM,0.538
same,relative viability,NCI-H441; first compound 0.04 µM,0.19
same,relative viability,NCI-H441; first compound 0.1265 µM,0.206
same,relative viability,NCI-H441; first compound 0.4 µM,0.176
same,relative viability,NCI-H441; first compound 1.265 µM,0.137
same,relative viability,NCI-H441; first compound 4 µM,0.132
same,relative viability,SW 900; first compound 0.04 µM,0.506
same,relative viability,SW 900; first compound 0.1265 µM,0.465
same,relative viability,SW 900; first compound 0.4 µM,0.318
same,relative viability,SW 900; first compound 1.265 µM,0.289
same,relative viability,SW 900; first compound 4 µM,0.222
same,relative viability,NCI-H1437; first compound 0.04 µM,0.266
same,relative viability,NCI-H1437; first compound 0.1265 µM,0.251
same,relative viability,NCI-H1437; first compound 0.4 µM,0.218
same,relative viability,NCI-H1437; first compound 1.265 µM,0.296
same,relative viability,NCI-H1437; first compound 4 µM,0.217
same,relative viability,EKVX; first compound 0.04 µM,0.429
same,relative viability,EKVX; first compound 0.1265 µM,0.34
same,relative viability,EKVX; first compound 0.4 µM,0.372
same,relative viability,EKVX; first compound 1.265 µM,0.368
same,relative viability,EKVX; first compound 4 µM,0.314
same,relative viability,NCI-H358; first compound 0.04 µM,0.168
same,relative viability,NCI-H358; first compound 0.1265 µM,0.163
same,relative viability,NCI-H358; first compound 0.4 µM,0.153
same,relative viability,NCI-H358; first compound 1.265 µM,0.145
same,relative viability,NCI-H358; first compound 4 µM,0.155
same,relative viability,HCC-827; first compound 0.04 µM,0.528
same,relative viability,HCC-827; first compound 0.1265 µM,0.388
same,relative viability,HCC-827; first compound 1.265 µM,0.279
same,relative viability,HCC-827; first compound 4 µM,0.252
